{"source": "patent US20240124456A1", "about": "“AZA-ERGOLINE DERIVATIVE AND PREPARATION METHOD THEREFOR AND APPLICATION THEREOF” (SHANGHAITECH UNIVERSITY, priority 2021, published 2024)", "key": {"[1]": {"system": "C57B6 male mice", "assay": "Old and novel object recognition, MK801 recognition impairment model", "type": "in vivo", "settings": "for Distinguishing index (DI): MK801 (0.3 mg/kg) 14 injections in 7 days, 7 days recovery", "procedure": "The experimental animals were C57B6 male mice, n=8 in each group. Firstly, mice were intraperitoneally injected with MK801 at 0.3 mg/kg twice a day for seven consecutive days to establish a recognition impairment model, and control mice were intraperitoneally injected with normal saline containing the same amount of DMSO. The mice then underwent a seven-day recovery in home cages. After the recovery period expired, the old and novel object distinguishing experiment was performed on the mice to determine the effect of the compounds on the recognition ability of the mice.\nNovel and old object recognition experiment: The experiment was carried out in a low-light environment. Before the experiment started, the mice were placed in the experimental field in advance and adapted to the environment for one hour in the low-light environment. After environmental adaptation, the mice were administered intraperitoneally. 30 minutes after the administration, the mice were put in an open field (diameter of the open field of 40 cm) in which two identical objects had been placed beforehand. The mice explored freely in the open field for 10 minutes, and then were removed from the open field and returned to the cage. After a one-hour interval, the mice returned to the open field, where an old object and a novel object were placed in advance in the same position in the open field. Again, the mice explored freely in the open field for 10 minutes. The distinguishing time of the mice for the old object and the novel object was recorded separately and the distinguishing index was calculated. The calculation method of the distinguishing index was (exploration time for novel object−exploration time for old object)/(exploration time for novel object+exploration time for old object). Object exploration by the mice was defined as sniffing, climbing, and direct contact with the object. Data statistics were carried out using Student-t-test, p<0.05 was *, p<0.01 was **, p<0.001 was ***, p<0.0001 was ****."}, "[2]": {"system": "C57B6 male mice", "assay": "Open field athletic ability test, MK801-induced hyperkinesia", "type": "in vivo", "settings": "for 45 minutes moving distance: n=8", "procedure": "Experimental method: The experimental animals were C57B6 male mice, n=8 in each group. This model used C57B6 mice as experimental animals. The behavioral representation of hyperkinesia in open field environment in mice was induced by acute injection of NMDA antagonist MK801 and modeled to test the inhibitory effect of different compounds on hyperkinesia phenotype induced by MK801. All mouse behavior experiments were carried out during the light period of the mice, and the whole experiment was recorded by the camera and automatic tracking and data statistics were carried out by behavioral tracking software. The compound was administered by intraperitoneal injection. Immediately after the injection, the mice entered the open field and their movement trajectories began to record. After 30 minutes, the mice received 0.2 mg/kg of MK801 by intraperitoneal injection and returned to the open field immediately after administration and the movement trajectories were further recorded for 120 min. The accumulative moving distance of the mice was counted at a data sampling point every five minutes. Data statistics were carried out using Student-t-test, p<0.05 was *, p<0.01 was **, p<0.001 was ***, p<0.0001 was ****. The total moving distance of the mice in 0-45 minutes under the combined action of different doses of (−)-I-10 and MK801 (0.2 mg/kg) is shown in Table 7."}}}
{"smiles": "CN(C)C(=O)N[C@H]1CC[C@H](CCN2CCN3c4cccc5[nH]cc(c45)C[C@H]3C2)CC1", "note": "[(−)-I-10]", "values": [{"measurement": "improvement of MK801-induced recognition impairment (in words)", "setting": "[1]; 0.1 mg/kg and 0.025 mg/kg", "result": "significantly improve"}, {"measurement": "Distinguishing index (DI)", "setting": "[1]; 0.00625 mg/kg", "result": "0.05971 ± 0.03658"}, {"measurement": "Distinguishing index (DI)", "setting": "[1]; 0.025 mg/kg", "result": "0.3320 ± 0.06367"}, {"measurement": "Distinguishing index (DI)", "setting": "[1]; 0.1 mg/kg", "result": "0.2789 ± 0.04036"}, {"measurement": "inhibition of the improvement of athletic ability induced by MK801 (in words)", "setting": "[2]; 0.4/0.1/0.025 mg/kg", "result": "significantly inhibit"}, {"measurement": "45 minutes moving distance", "setting": "[2]; MK801 (0.2 mg/kg) + 0.00625 mg/kg intraperitoneal", "result": 11626, "unit": "cm"}, {"measurement": "45 minutes moving distance", "setting": "[2]; MK801 (0.2 mg/kg) + 0.025 mg/kg intraperitoneal", "result": 8643, "unit": "cm"}, {"measurement": "45 minutes moving distance", "setting": "[2]; MK801 (0.2 mg/kg) + 0.1 mg/kg intraperitoneal", "result": 3833, "unit": "cm"}, {"measurement": "45 minutes moving distance", "setting": "[2]; MK801 (0.2 mg/kg) + 0.4 mg/kg intraperitoneal", "result": 2644, "unit": "cm"}]}
